Broadly, the solubility is the dissolved amount per volume that the medium holds. A high value points to much dissolved substance.

SMILES strings stand for the structures. Values after ≈ are worked out from the molar mass of the structure shown. Like-named read-outs stand apart in the source and are kept apart here.

The results in this text go back to patent US8101616B2, “Pyridine and pyrimidine derivatives as inhibitors of histone deacetylase” (Janssen Pharmaceutica N.V., priority 2006, dated 2012).

Data set [1] has as its target histone deacetylase (HeLa nuclear extracts). Put plainly: In vitro assay for inhibition of histone deacetylase with fluorescent-labelled substrate (C.1). The settings on record: Fluor de Lys substrate. The format is biochemical. An excerpt:
The in vitro assay for inhibition of histone deacetylase (see example C.1) measures the inhibition of HDAC enzymatic activity obtained with the compounds of formula (I).
The HDAC Fluorescent Activity Assay/Drug Discovery Kit of Biomol (cat. No: AK-500-0001) was used. The HDAC Fluorescent Activity Assay is based on the Fluor de Lys (Fluorogenic Histone deAcetylase Lysyl) substrate and developer combination. The Fluor de Lys substrate, comprises an acetylated lysine side chain. Deacetylation of the substrate sensitizes the substrate so that, in the second step, treatment with the Fluor de Lys developer produces a fluorophore.
HeLa nuclear extracts (supplier: Biomol) were incubated at 60 μg/ml with 75 μM of substrate. The Fluor de Lys substrate was added in a buffer containing 25 mM Tris, 137 mM NaCl, 2.7 mM KCl and 1 mM MgCl2.6H2O at pH 7.4. After 30 min, 1 volume of the developer was added. The fluorophore was excited with 355 nm light and the emitted light (450 nm) was be detected on a fluorometric plate reader.
For each experiment, controls (containing HeLa nuclear extract and buffer), a blank incubation (containing buffer but no HeLa nuclear extract) and samples (containing compound dissolved in DMSO and further diluted in buffer and HeLa nuclear extract) were run in parallel. In first instance, compounds were tested at a concentration of 10^−5M. […] All sample were tested 4 times. In each test the blank value was substracted from both the control and the sample values. The control sample represented 100% of substrate deactylation. For each sample the fluorescence was expressed as a percentage of the mean value of the controls. […] Herein the effects of test compounds are expressed as pIC50 (the negative log value of the IC50-value) (see Table F-2).

For data set [2], the system named is A2780 ovarian carcinoma cells. Nature of the data set: Antiproliferative activity on A2780 cells, MTT (C.2). The format is cell-based. The settings on record: Homo sapiens, 96 h, four days of incubation, read-out: Cellular activity pIC50 C.2 (converted). How it is done:
Cellular activity of the compounds of formula (I) was determined on A2780 tumour cells using a […] assay for cell toxicity or survival (Mosmann Tim, Journal of Immunological Methods 65: 55-63, 1983) (see example C.2).
All compounds tested were dissolved in DMSO and further dilutions were made in culture medium. Final DMSO concentrations never exceeded 0.1% (v/v) in cell proliferation assays. Controls contained A2780 cells and DMSO without compound and blanks contained DMSO but no cells. MTT was dissolved at 5 mg/ml in PBS. A glycine buffer comprised of 0.1 M glycine and 0.1 M NaCl buffered to pH 10.5 with NaOH (1 N) was prepared (all reagents were from Merck).
The human A2780 ovarian carcinoma cells (a kind gift from Dr. T. C. Hamilton [Fox Chase Cancer Centre, Pennsylvania, USA]) were cultured in RPMI 1640 medium supplemented with 2 mM L-glutamine, 50 μg/ml gentamicin and 10% fetal calf serum. Cells were routinely kept as monolayer cultures at 37° C. in a humidified 5% CO2 atmosphere. Cells were passaged once a week using a trypsin/EDTA solution at a split ratio of 1:40. All media and supplements were obtained from Life Technologies. Cells were free of mycoplasma contamination as determined using the Gen-Probe Mycoplasma Tissue Culture kit (supplier: BioMérieux).
Cells were seeded in NUNC™ 96-well culture plates (Supplier: Life Technologies) and allowed to adhere to the plastic overnight. Densities used for plating were 1500 cells per well in a total volume of 200 μl medium. After cell adhesion to the plates, medium was changed and drugs and/or solvents were added to a final volume of 200 μl. Following four days of incubation, medium was replaced by 200 μl fresh medium and cell density and viability was assessed using an MTT-based assay. […] For each sample, the mean value for cell growth (in absorbance units) was expressed as a percentage of the mean value for cell growth of the control. […] Herein the effects of test compounds are expressed as pIC50 (the negative log value of the IC50-value) (see Table F-2).

A short description of data set [3]: Solubility at pH 2.3, chemiluminescent nitrogen detector (C.3.b). The format is physicochemical. Here is the method: The solubility of a compound measures the ability of a compound to stay in solution. In the first method, the ability of a compound to stay in aqueous solution upon dilution (see example C.3.a) is measured. DMSO-stock solutions are diluted with a single aqueous buffer solvent in different consecutive steps. In this method (C.3.a), mixtures are then scanned in the BD Gentest Solubility Scanner for the occurrence of precipitation. In a second method the solubility of a compound at different pH's can be measured with the use of a chemiluminescent nitrogen detector (see example C.3.b).
The solubility of a compound, at pH 2.3, can also be measured with the use of a chemiluminescent nitrogen detector (see Table F-2).

As to `Nc1ccccc1NC(=O)c1cnc(N2CCN(C(/C=C/c3cccc(F)c3)CO)CC2)nc1` (stereo not drawn) [Compound 2], the “Enzymatic activity pIC50 C.1” value in data set [1] was <6. Further, the IC50 in data set [2] is 251 nM.
On the same counts, the results for `COCC(/C=C/c1ccc(F)cc1)N1CCN(c2ccc(C(=O)Nc3ccccc3N)cn2)CC1` (stereo not drawn) [Compound 1] are <6 and 2510 nM.
As for `COc1cc(N)c(Cl)cc1C(=O)NC1CCN(CCCOc2ccc(F)cc2)CC1OC` (stereo not drawn) [Cisapride], the “% metabolism” value (human, 15 min, 5 μM) turned out to be 45%.
Regarding `Nc1ccccc1NC(=O)c1cnc(N2CCN(C(/C=C/c3ccccc3)CO)CC2)nc1` (stereo not drawn) [Compound 3], in data set [3], the concentration in solution (solubility) was 3700 µg/mL (≈ 8.32 mM). In data set [1], the “Enzymatic activity pIC50 C.1” value stood at 4.8. Also, in data set [2], the IC50 was 200 nM.
In the case of `CCCO` [propanol], the “% metabolism” value (15 min incubation with active microsomes, reference compounds) stood at 25%.
